Measured values as given in PubChem BioAssay (NCI).
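Grown in 96-well plates, cells were treated for 48 hours with each compound at five concentrations. Insufficient inhibition: endpoint recorded as highest concentration tested. TGI is the concentration that stops growth completely.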

Experiments:
Assay in all cases: growth of human tumour cells (NCI), 48 h
786-0 renal = tested on: 786-0 renal
A498 renal = tested on: A498 renal
A549 NSCLC = tested on: A549 NSCLC
ACHN renal = tested on: ACHN renal
BT-549 breast = tested on: BT-549 breast
CAKI-1 renal = tested on: CAKI-1 renal
CCRF-CEM leukemia = tested on: CCRF-CEM leukemia
COLO 205 colon = tested on: COLO 205 colon
DU-145 prostate = tested on: DU-145 prostate
EKVX NSCLC = tested on: EKVX NSCLC
HCC-2998 colon = tested on: HCC-2998 colon
HCT-116 colon = tested on: HCT-116 colon
HCT-15 colon = tested on: HCT-15 colon
HL-60(TB) leukemia = tested on: HL-60(TB) leukemia
HOP-62 NSCLC = tested on: HOP-62 NSCLC
HOP-92 NSCLC = tested on: HOP-92 NSCLC
HS 578T breast = tested on: HS 578T breast
HT29 colon = tested on: HT29 colon
IGROV1 ovarian = tested on: IGROV1 ovarian
K-562 leukemia = tested on: K-562 leukemia
KM12 colon = tested on: KM12 colon
LOX IMVI melanoma = tested on: LOX IMVI melanoma
M14 melanoma = tested on: M14 melanoma
MALME-3M melanoma = tested on: MALME-3M melanoma
MCF7 breast = tested on: MCF7 breast
MDA-MB-231 breast = tested on: MDA-MB-231 breast
MDA-MB-435 = tested on: MDA-MB-435
MOLT-4 leukemia = tested on: MOLT-4 leukemia
NCI-H226 lung = tested on: NCI-H226 lung
NCI-H23 lung = tested on: NCI-H23 lung
NCI-H460 lung = tested on: NCI-H460 lung
NCI-H522 lung = tested on: NCI-H522 lung
NCI/ADR-RES ovarian = tested on: NCI/ADR-RES ovarian
OVCAR-3 ovarian = tested on: OVCAR-3 ovarian
OVCAR-4 ovarian = tested on: OVCAR-4 ovarian
OVCAR-5 ovarian = tested on: OVCAR-5 ovarian
OVCAR-8 ovarian = tested on: OVCAR-8 ovarian
PC-3 prostate = tested on: PC-3 prostate
RPMI-8226 leukemia = tested on: RPMI-8226 leukemia
RXF 393 renal = tested on: RXF 393 renal
SF-268 CNS = tested on: SF-268 CNS
SF-295 CNS = tested on: SF-295 CNS
SF-539 CNS = tested on: SF-539 CNS
SK-MEL-2 melanoma = tested on: SK-MEL-2 melanoma
SK-MEL-28 melanoma = tested on: SK-MEL-28 melanoma
SK-MEL-5 melanoma = tested on: SK-MEL-5 melanoma
SK-OV-3 ovarian = tested on: SK-OV-3 ovarian
SN12C renal = tested on: SN12C renal
SNB-19 CNS = tested on: SNB-19 CNS
SNB-75 CNS = tested on: SNB-75 CNS
SR leukemia = tested on: SR leukemia
SW-620 colon = tested on: SW-620 colon
T-47D breast = tested on: T-47D breast
TK-10 renal = tested on: TK-10 renal
U251 CNS = tested on: U251 CNS
UACC-257 melanoma = tested on: UACC-257 melanoma
UACC-62 melanoma = tested on: UACC-62 melanoma
UO-31 renal = tested on: UO-31 renal

With `CNC(=O)N(C1=NCC(C)S1)c1ccc(C)c(C)c1` (stereo not drawn) the TGI (786-0 renal) was > 48.8 µM, the TGI (A498 renal) was 17 µM and the TGI (A549 NSCLC) was > 100 µM. For the same compound, the TGI (ACHN renal) was > 76.5 µM, the TGI (BT-549 breast) was > 100 µM and the TGI (CAKI-1 renal) was 20.6 µM. For the same compound, the TGI (CCRF-CEM leukemia) was > 62.8 µM, the TGI (COLO 205 colon) was > 44.6 µM and the TGI (DU-145 prostate) was > 100 µM. For the same compound, the TGI (EKVX NSCLC) was 70.4 µM, the TGI (HCC-2998 colon) was 24.1 µM and the TGI (HCT-116 colon) was > 76.8 µM. For the same compound, the TGI (HCT-15 colon) was > 54 µM, the TGI (HL-60(TB) leukemia) was 4.1 µM and the TGI (HOP-62 NSCLC) was > 100 µM. For the same compound, the TGI (HOP-92 NSCLC) was > 29.5 µM, the TGI (HS 578T breast) was > 100 µM and the TGI (HT29 colon) was 12.7 µM. For the same compound, the TGI (IGROV1 ovarian) was > 100 µM, the TGI (K-562 leukemia) was > 20.1 µM and the TGI (KM12 colon) was > 55.7 µM. The TGI (LOX IMVI melanoma) was > 48.5 µM, the TGI (M14 melanoma) was > 42.3 µM and the TGI (MALME-3M melanoma) was 55.2 µM. The TGI (MCF7 breast) was 26.6 µM, the TGI (MDA-MB-231 breast) was > 100 µM and the TGI (MDA-MB-435) was 3.49 µM. For the same compound, the TGI (MOLT-4 leukemia) was > 59.2 µM, the TGI (NCI-H226 lung) was > 100 µM and the TGI (NCI-H23 lung) was > 100 µM. For the same compound, the TGI (NCI-H460 lung) was 42.6 µM, the TGI (NCI-H522 lung) was 17.1 µM and the TGI (NCI/ADR-RES ovarian) was > 20.4 µM. The TGI (OVCAR-3 ovarian) was 8.4 µM, the TGI (OVCAR-4 ovarian) was > 100 µM and the TGI (OVCAR-5 ovarian) was > 100 µM. For the same compound, the TGI (OVCAR-8 ovarian) was 45.7 µM, the TGI (PC-3 prostate) was > 55 µM and the TGI (RPMI-8226 leukemia) was 15.1 µM. The TGI (RXF 393 renal) was 8.31 µM, the TGI (SF-268 CNS) was 40.6 µM and the TGI (SF-295 CNS) was > 73.6 µM. For the same compound, the TGI (SF-539 CNS) was > 25.6 µM, the TGI (SK-MEL-2 melanoma) was 15.5 µM and the TGI (SK-MEL-28 melanoma) was > 92.8 µM. For the same compound, the TGI (SK-MEL-5 melanoma) was 19.1 µM, the TGI (SK-OV-3 ovarian) was > 93 µM and the TGI (SN12C renal) was > 87.2 µM. For the same compound, the TGI (SNB-19 CNS) was > 100 µM, the TGI (SNB-75 CNS) was > 24.7 µM and the TGI (SR leukemia) was > 71.7 µM. For the same compound, the TGI (SW-620 colon) was > 100 µM, the TGI (T-47D breast) was > 100 µM and the TGI (TK-10 renal) was > 68.2 µM. The TGI (U251 CNS) was > 36.8 µM, the TGI (UACC-257 melanoma) was > 78.1 µM and the TGI (UACC-62 melanoma) was > 100 µM. The TGI (UO-31 renal) was > 78.7 µM.
